Values of other authors, collected in US20100172957A1, “EFLUCIMIBE MEDICAMENTS FOR PREVENTING/TREATING A DISEASE DUE TO SEBACEOUS GLAND DYSFUNCTION IN HUMANS OR ANIMALS” (GALDERMA RESEARCH & DEVELOPMENT, priority 2007, published 2010).

Test system: sebum production
Conditions: current treatment, background statement

Structure (SMILES): CC1=C(/C=C/C(C)=C/C=C/C(C)=C\C(=O)O)C(C)(C)CCC1 [isotretinoin]
- decrease of sebum production: ~90%
